Results as given in US4129648A, “Method for reducing endogenous prostaglandin synthesis” (priority 1977, dated 1978).

System: prostaglandin synthetase of bovine seminal vesicles
Assay: Inhibition of conversion of arachidonic acid into PGE2 and PGF2α by BSV prostaglandin synthetase, cascade bioassay
Assay type: biochemical
Protocol: The high molecular weight mammalian blood plasma or serum extract of the present invention was tested for PG synthesis-inhibiting properties by determining the ability of the extract to inhibit the conversion of arachidonic acid into PGE2 and PGF2α by PG synthetase present in BSV, in the presence of optimal amounts of the cofactor glutathione, (reduced form). Specifically, the inhibitory properties of the extract were determined by a cascade bioassay technique [Collier et al., Brit. J. Pharmac., 58, 193-199 (1976)] involving measurement of prostaglandin activity against response.
The ability of the purified mammalian serum extract to inhibit the enzymatic conversion of arachidonic acid by prostaglandin synthetase obtained from BSV was determined by bioassay on tissues which are known to be contracted by naturally occurring PGs. Segments of rat or hamster stomach fundus (stomach strip) were obtained as described in Brit. J. Pharmacol. Vol. 5, 173 (1950), Vol. 6, 32 (1953), Vol. 12, 344 (1957), and Vol. 23, 351 (1964). […]
A dose of standard PGE2 is put over the tissues by means of the roller pump and the tissue response measured by recording the tissue contraction. […] Alternately, the protein content of the solution can be determined by known techniques, such as the biuret reaction or Kjeldahl method, and the test value expressed in ng. […]

Inhibition of PG synthesis (in words): demonstrated an ability to inhibit
Substance: haptoglobin obtained from Cohn subfraction IV4 by the above procedure: haptoglobin from Cohn subfraction IV4 by second procedure: ethacridine lactate precipitation and chromatography
